Data reported in US10155743B2, “Glutarimide derivatives, use thereof, pharmaceutical composition based thereon and methods for producing glutarimide derivatives” (OBSCHESTVO S OGRANICHENNOI OTVETSTVENNOSTIYU …, priority 2013, dated 2018).

Columns and labels:
[1] = tested on: human respiratory syncytial virus (strain A2, ATCC VR-1540); format: in vivo; settings: Balb/c mice, cyclophosphan 100 mg/kg 5 days before infection; 30 mg/kg once daily for 5 days from 24 h; score from possible 4; M ± SD, n = 5
[2] = tested on: mucous membrane of nasal passages, formalin-induced acute rhinosinusitis; test: Acute rhinosinusitis rat model (induced by intranasal 7.5% formalin solution); format: in vivo, Wistar rats; settings: rats; for The number of caliciform cells within 1 mm of the mucous membrane of the nasal septum: tested compounds 27 mg/kg for 7 days after induction, M ± m; for Macroscopic changes in the mucous membrane of nasal passages: Muculent or mucopurulent catarrh (number of animals) / Macroscopic changes in the mucous membrane of nasal passages: Without changes (number of animals): tested compounds 27 mg/kg for 7 days, count out of n of the group
Protocol: Morphological studies of histologic preparations were conducted with a Leica DMLS light-optical microscope (Leica Microsystems, Germany). Micro-morphometric assessment was performed by using an ocular micrometer on a Leica DMLB microscope.
Acute rhinosinusitis was induced by intranasal administration of 20 μl of 7.5% formalin solution (aqueous solution comprising 40% formaldehyde, 8% methyl alcohol, and 52% water) to each nasal passage of rats.
Administration of formalin to rat nasal passages leads to the dissemination of inflammation to adjacent tissues, resulting in a clinical pattern similar to the symptoms of rhinosinusitis in a human.
After an acclimatization period, the following groups were formed: • intact animals administered intragastrically a saline solution in an amount of 0.2 ml, the induction of acute rhinosinusitis was not performed; • a control group consisted of the animals administered intragastrically a saline solution in an amount of 0.2 ml for 7 days after induction of acute rhinosinusitis; • animals administered intramuscularly dexamethasone at a dose of 0.33 mg/kg for 7 days after induction of acute rhinosinusitis; and • animals administered the tested compounds at a dose of 27 mg/kg for 7 days after induction of acute rhinosinusitis.
Clinical observation of each animal was performed every day at least twice daily.
In the experiment with Wistar rats, the induction of acute rhinosinusitis by administration of a 7.5% formalin solution to nasal passages caused in the control group of animals pronounced pathological changes characterizing the development of an acute inflammation process in the nasal mucous. The caused pathology was characterized by congestion, hyperplasia, focal necrosis of the nasal meatus mucous membrane, an increased number of caliciform cells, pronounced infiltration by mononuclear cells and leucocytes, and mucus hyperproduction by submucosal glands.
The mucous and submucous membranes of both nasal passages (respiratory and olfactory regions) of the experimental animals were subjected to a morphological analysis to evaluate a specific activity of the compounds.
For microscopic examination, the sections were stained with hematoxylin and eosin. Detection of acid mukopolysaccharides, the production of which is increased in an inflammation, was performed by histochemical staining of the preparation with Alcian Blue (pH 2.5). The comparison and histological evaluation of changes were performed versus the group of intact rats.
After slaughter, the gross appearance of inflammation in the nasal passages was studied in each animal. Histological, hystochemical and morphological studies of rats were intended to evaluate the following characteristics of nasal passages: congestion of the mucous membrane; hyperplasia and necrosis of nasal epithelium, the number of caliciform cells within 1 mm of the mucous membrane of the nasal septum, and the character of inflammation.
In this study, the efficiency of the mucociliary system was evaluated by the number of caliciform cells and, as a consequence, microscopic changes in the mucous membrane of the nasal passages.

[3] = tested on: influenza virus strain A/California/07/09 (H1N1) pdm09; test: animal or person; format: in vivo, white outbred female mice; settings: unidentified influenza virus, H1N1, in Mus musculus, po, 336 h, read-out: Mortality rate, %
[4] = tested on: hRV strain (GKV reg. No. 2730); test: Antiviral activity against rhinovirus in mice (body weight, lung weight, infectious titer in lungs); format: in vivo; settings: for Body weight of the mice after infection with hRV, day 1: day 1 after infection; for Body weight of the mice after infection with hRV, day 2 / Lung weight of the mice after infection with hRV, day 2: day 2 after infection; for Body weight of the mice after infection with hRV, day 3 / Lung weight of the mice after infection with hRV, day 3: day 3 after infection; for Body weight of the mice after infection with hRV, day 4 / Lung weight of the mice after infection with hRV, day 4: day 4 after infection
[5] = tested on: Coxsackie A2-virus (strain HCXV A2); test: Antiviral activity against Coxsackie virus in vivo (mortality of infected mice); design: species or system white mice; settings: mice; for inhibition in vivo at 30 mg/kg / mortality at 30 mg/kg: Mus musculus, po; for inhibition in vivo at 30 mg/kg: 168 h, read-out: Protective index (%); for inhibition in vivo at 30 mg/kg / Average expectancy life (days), Relative / Average expectancy life (days), Vs. control: 10LD50 HCXV A2, 30 mg/kg orally once daily for 7 days; for mortality at 30 mg/kg: 360 h, 10LD50 HCXV A2 i.m., 30 mg/kg orally once daily for 7 days from 24 h after infection, 15 days monitoring, read-out: Total mortality rate, %; for Average expectancy life (days), Vs. control: difference to virus control
[6] = 30 mg/kg orally, difference control minus experimental group
[7] = 30 mg/kg orally, lung suspension titrated in Hela cell culture
[8] = Ribavirin 40 mg/kg, Hela cell culture

For `CC1(C)CC(=O)N(CCc2cnc[nH]2)C(=O)C1` [Compound 3], the “Degree of pulmonary edema on day 5 after infection, score” value (“Degree of pulmonary edema” for short) [1] was 1.6 ± 0.89 score, the “The number of caliciform cells within 1 mm of the mucous membrane of the nasal septum” value [2] was 35.8 ± 0.9 and the “Macroscopic changes in the mucous membrane of nasal passages: Muculent or mucopurulent catarrh (number of animals)” value [2] was 7. For the same compound, the “Macroscopic changes in the mucous membrane of nasal passages: Without changes (number of animals)” value [2] was 5.
`O=C1CCCC(=O)N1CCC1CCCN1` (centres unmarked) [Compound 4] was tested, and the mortality at 30 mg/kg [3] was 65%, the “Degree of pulmonary edema” value [1] was 1.95 ± 0.31 score and the “Body weight of the mice after infection with hRV, day 0” value ([4]; 30 mg/kg orally once daily for 5 days starting 12 hours after infection) was 7.77 ± 1.02. For the same compound, the “Body weight of the mice after infection with hRV, day 1” value ([4]; 30 mg/kg orally once daily) was 7.27 ± 1.27, the “Body weight of the mice after infection with hRV, day 2” value ([4]; 30 mg/kg orally once daily) was 12.66 ± 2.32 and the “Lung weight of the mice after infection with hRV, day 2” value ([4]; 30 mg/kg orally once daily) was 142 ± 4.81. For the same compound, the “Body weight of the mice after infection with hRV, day 3” value ([4]; 30 mg/kg orally once daily) was 13.14 ± 1.5, the “Lung weight of the mice after infection with hRV, day 3” value ([4]; 30 mg/kg orally once daily) was 135.9 ± 4.18 and the “Body weight of the mice after infection with hRV, day 4” value ([4]; 30 mg/kg orally once daily) was 13.23 ± 1.38. The “Lung weight of the mice after infection with hRV, day 4” value ([4]; 30 mg/kg orally once daily) was 134.2 ± 3.68, the “Suppression of the reproduction of the virus in mouse lungs, Δ lg, Day 2 after infection” value [4, 6] was 1.65 ± 0.65 Δ lg and the “Suppression of the reproduction of the virus in mouse lungs, Δ lg, Day 3 after infection” value [4, 6] was 1.9 ± 0.27 Δ lg. For the same compound, the “Suppression of the reproduction of the virus in mouse lungs, Δ lg, Day 4 after infection” value [4, 6] was 2.2 ± 4.68 Δ lg, the “Infectious titer of the virus in lungs, lg TCID50, Day 2 after infection” value [4, 7] was 2.35 ± 0.65 lg TCID50 and the “Infectious titer of the virus in lungs, lg TCID50, Day 3 after infection” value [4, 7] was 0.6 ± 0.27 lg TCID50. The “Infectious titer of the virus in lungs, lg TCID50, Day 4 after infection” value [4, 7] was 0 ± 0 lg TCID50.
For `Cn1cnc(CCN2C(=O)CCCC2=O)c1` [Compound 5], the mortality at 30 mg/kg [3] was 45% and the “Degree of pulmonary edema” value [1] was 1.10 ± 0.19 score.
With `O=C1CCCC(=O)N1CCc1nccs1` [Compound 6] the “Degree of pulmonary edema” value [1] was 0.90 ± 0.22 score, the “The number of caliciform cells within 1 mm of the mucous membrane of the nasal septum” value [2] was 36.5 ± 0.8 and the “Macroscopic changes in the mucous membrane of nasal passages: Muculent or mucopurulent catarrh (number of animals)” value [2] was 4. For the same compound, the “Macroscopic changes in the mucous membrane of nasal passages: Without changes (number of animals)” value [2] was 2.
For `O=C1CCCC(=O)N1CCc1ccncc1` [Compound 9], the “Degree of pulmonary edema” value [1] was 1.00 ± 0.17 score.
`O=C1CCCC(=O)N1CCc1ccsc1` [Compound 12] showed a mortality at 30 mg/kg [3] of 60%, an inhibition in vivo at 30 mg/kg [5] of 45% and a mortality at 30 mg/kg [5] of 40%. The “Average expectancy life (days), Relative” value [5] was 24.9 days and the “Average expectancy life (days), Vs. control” value [5] was “+14.2 days”.
With `CC1(C)CCC(=O)N(CCc2c[nH]cn2)C1=O` [Compound 20] the mortality at 30 mg/kg [3] was 50%, the “Macroscopic changes in the mucous membrane of nasal passages: Muculent or mucopurulent catarrh (number of animals)” value [2] was 4 and the “Macroscopic changes in the mucous membrane of nasal passages: Without changes (number of animals)” value [2] was 4.
In the case of `O=C1CCCC(=O)N1CCN1CCCC1` [Compound 23], the mortality at 30 mg/kg [3] is reported as 40%, the inhibition in vivo at 30 mg/kg [5] is reported as 36% and the mortality at 30 mg/kg [5] is reported as 50%. The “Average expectancy life (days), Relative” value [5] was 23.8 days and the “Average expectancy life (days), Vs. control” value [5] was “+13.1 days”.
For `O=C1CCCC(=O)N1CCCn1ccnc1` [Compound 24], the mortality at 30 mg/kg [3] was 55%.
`O=C1CCCC(=O)N1CCn1ccnc1` [Compound 30] showed a mortality at 30 mg/kg [3] of 50%, an inhibition in vivo at 30 mg/kg [5] of 18% and a mortality at 30 mg/kg [5] of 60%. The “Average expectancy life (days), Relative” value [5] was 13.1 days and the “Average expectancy life (days), Vs. control” value [5] was “+2.4 days”.
Compound `O=C1CCCC(=O)N1CCc1cn[nH]n1` [Compound 35] has a mortality at 30 mg/kg [3] of 55%, an inhibition in vivo at 30 mg/kg [5] of 27% and a mortality at 30 mg/kg [5] of 53.3%. The “Average expectancy life (days), Relative” value [5] was 16.6 days and the “Average expectancy life (days), Vs. control” value [5] was “+5.9 days”.
`O=C1CCCC(=O)N1CCc1nnn[nH]1` [Compound 36] was tested, and the mortality at 30 mg/kg [3] was 60%, the inhibition in vivo at 30 mg/kg [5] was 27% and the mortality at 30 mg/kg [5] was 53.3%. For the same compound, the “Average expectancy life (days), Relative” value [5] was 16.7 days and the “Average expectancy life (days), Vs. control” value [5] was “+6.0 days”.
For `O=C(O)C(Cc1ccccn1)N1C(=O)CCCC1=O` (centres unmarked) [Compound 83], the mortality at 30 mg/kg [3] was 45%.
With `O=C1CCCC(=O)N1CCC1CCNC1` (centres unmarked) [Compound 120] the “Degree of pulmonary edema” value [1] was 1.05 ± 0.14 score.
With `O=C1CCCC(=O)N1CCC1CCCNC1` (centres unmarked) [Compound 121] the “Degree of pulmonary edema” value [1] was 0.90 ± 0.21 score.
In the case of `O=C1CCCC(=O)N1CCC1CCNCC1` [Compound 123], the “Degree of pulmonary edema” value [1] is reported as 1.30 ± 0.17 score.
With `NC(=O)c1ncn([C@@H]2O[C@H](CO)[C@@H](O)[C@H]2O)n1` [Ribavirin, reference compound] the “Suppression of the reproduction of the virus in mouse lungs, Δ lg, Day 2 after infection” value ([4]; Ribavirin 40 mg/kg) was 0.88 ± 0.5 Δ lg, the “Suppression of the reproduction of the virus in mouse lungs, Δ lg, Day 3 after infection” value ([4]; Ribavirin 40 mg/kg) was 2.18 ± 0.26 Δ lg and the “Suppression of the reproduction of the virus in mouse lungs, Δ lg, Day 4 after infection” value ([4]; Ribavirin 40 mg/kg) was 2 ± 0.16 Δ lg. For the same compound, the “Infectious titer of the virus in lungs, lg TCID50, Day 2 after infection” value [4, 8] was 3.13 ± 0.5 lg TCID50, the “Infectious titer of the virus in lungs, lg TCID50, Day 3 after infection” value [4, 8] was 0.33 ± 0.26 lg TCID50 and the “Infectious titer of the virus in lungs, lg TCID50, Day 4 after infection” value [4, 8] was 0.2 ± 0.16 lg TCID50. For the same compound, the “Body weight of the mice after infection with hRV, day 0” value ([4]; Ribavirin 40 mg/kg) was 7.66 ± 0.89, the “Body weight of the mice after infection with hRV, day 1” value ([4]; Ribavirin 40 mg/kg) was 8.81 ± 5.94 and the “Body weight of the mice after infection with hRV, day 2” value ([4]; Ribavirin 40 mg/kg) was 13.87 ± 5.11. For the same compound, the “Lung weight of the mice after infection with hRV, day 2” value ([4]; Ribavirin 40 mg/kg) was 152.6 ± 4.55, the “Body weight of the mice after infection with hRV, day 3” value ([4]; Ribavirin 40 mg/kg) was 13.11 ± 1.37 and the “Lung weight of the mice after infection with hRV, day 3” value ([4]; Ribavirin 40 mg/kg) was 130.1 ± 5.4. For the same compound, the “Body weight of the mice after infection with hRV, day 4” value ([4]; Ribavirin 40 mg/kg) was 13.37 ± 1.22 and the “Lung weight of the mice after infection with hRV, day 4” value ([4]; Ribavirin 40 mg/kg) was 120.5 ± 3.37.
